The values that follow come from patent US10662203B2, “Pyrido[2,3-b]indole compounds for the treatment and prophylaxis of bacterial infection” (Hoffmann-La Roche Inc., priority 2017, dated 2020).

For data set [1], the system named is A. baumannii (ATCC17978). Briefly: 50% growth inhibitory concentration (IC50) determination assay. The class given is cell-based. To be noted: Iso-Sensitest broth, 0.098 = detection limit. An outline of the steps:
(§1)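 First, DMSO stocks are diluted two-fold to give 50–0.097 μM final. Next, wells receive bacterial suspension in Iso-Sensitest broth for ~5×10^5 CFU/mL. Plates then sit at 35±2° C while OD at 600 nm is recorded every 20 min for 16 h.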

Data set [2] has as its system K. pneumoniae (ATCC10031). Described as above. The class given is cell-based. The settings on record: Klebsiella pneumoniae, Iso-Sensitest broth, 0.098 = detection limit. An outline of the steps: as §1
Data set [3] deals with S. aureus (ATCC29213). The description is as above. It is filed as cell-based. The settings on record: Staphylococcus aureus, Iso-Sensitest broth, 0.098 = detection limit. The procedure, abridged:
as §1

Data set [4] deals with HepG2 cells (ATCC HB-8065). Briefly: Cytotoxicity assay (HepG2, CellTiter-Blue cell viability). It is filed as cell-based. To be noted: HepG2 cells, 3 days treatment; "*": the detection limit. The procedure, abridged: (§2)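 HepG2 cells (1.2×10^4 per well) exposed to compounds for 3 days; viability then read by CellTiter-Blue fluorescence after 3 h at 37 °C. CC50 from four-parameter logistic fit.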
Background: Alamar Blue is a resazurin reagent that responds to reducing activity.

A short description of data set [5]: Single dose PK study (SDPK) in female CD-1 mouse. The class given is in vivo. The settings on record: MOUSE IV, 1.0 mg/kg-Solution; for clearance: female, CD-1, plasma, read-out: CL total. As for the experimental part: Single Dose PK Study (SDPK) in Female CD-1 Mouse: The single dose PK in female CD-1 mouse was performed to assess compound's pharmacokinetic properties. One group of animals were dosed via bolus intravenous (IV) of the respective compound. Blood samples (approximately 30 μL) were collected via saphenous vein at 5 mins, 15 min, 30 min, 1 hr, 2 hr, 4 hr and 7 hr. For last time point (24 hr), samples were collected via cardiac puncture while the mouse was under anesthesia. Blood samples were placed into tubes containing EDTA-K2 anticoagulant (2 μL of 0.5M per tube) and centrifuged at 3000 rpm for 10 minutes at 4° C. within half an hour to separate plasma from the samples. Following centrifugation, plasma samples were stored in polypropylene tubes, quick frozen over dry ice and kept at −70±10° C. until LC/MS/MS analysis. The pharmacokinetic parameters were calculated using non-compartmental module of WinNonlin® Professional 6.4.

Data set [6] deals with multiple species and strains. Briefly: Minimal inhibitory concentration (MIC) and MIC90 determination, broth microdilution (CLSI M07-A10). The settings on record: S9: P. aeruginosa ATCC BAA-2113. As for the experimental part:
Minimal Inhibitory Concentration (MIC) and MIC90 Determination:
The MIC of antibacterial compounds against multiple species and strains was determined using the broth microdilution method according to M07-A10 Clinical and Laboratory Standards Institute (CLSI) guidelines (CLSI (2015) Methods for dilution antimicrobial susceptibility tests for bacteria that grow aerobically; Approved Standard, Tenth Edition. CLSI Document M7-A10 (ISBN 1-56238-987-4). Wayne, Pa.: Clinical and Laboratory Standards Institute, 19087, USA.). In short, bacterial strain preparation was performed on D1 and D2. […] 5-10 well-isolated colonies of similar morphology were selected and re-streaked onto fresh agar plates using sterile loops and incubated for 20-24 hr at 35±2° C. Bacterial strains were subcultured two times to ensure fresh inoculums for MIC screening. […] Alternatively, 1-2 colonies were transferred into 500 μL of saline and OD600 was adjusted to ˜0.1 using an OD meter. Bacterial inoculum was diluted by 1:280 for Gram-positive strains and 1:400 for Gram-negative strains into corresponding medium broth (CAMHB, CAMHB+3% lysed horse blood, HTM) (e.g. 35.6 μL of inoculum into 10 mL of CAMHB or 25 μL of inoculum into 10 mL of CAMHB). […] Compound stock concentration=[(highest testing concentration)×100 μL/2 μL] (e.g. if the required highest testing concentration is 64 μg/mL in assay plates, stock concentration=64 μg/mL×100 μL/2 μL=3.2 mg/mL). […] of each well was transferred in a new MTP, which served as the test plate by subsequent inoculation. The bacterial suspension prepared above is dispensed at 98 μL/well within 15 minutes after preparation. Negative controls (lack of bacterial cells) and growth control wells (lack of compound) were included in all plates. MTPs were incubated for 18-24 hours at 35±2° C. in ambient air. The MIC was recorded and CFUs were calculated on Day 4. The assay plate was placed on the top of MIC reader, and the magnification mirror was adjusted to read each wells, recording growth status as raw data. Photo images of each assay plates were recorded using Q Count 530 (Spiral Biotech). The MIC value of each compound, expressed as […], was determined as the lowest concentration required for complete growth inhibition (no visible growth).

The nature of data set [7]: Lyophilisation solubility assay (LYSA). The class given is physicochemical. To be noted: phosphate buffer, pH 6.5, aqueous buffer, thermodynamic from solid, 0.05 M phosphate buffer, HPLC-UV. The procedure, abridged: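 Duplicate samples made from 10 mM DMSO stock. DMSO evaporated and the residue taken up in 0.05 M phosphate buffer, pH 6.5, stirred 1 h and shaken 2 h, then left overnight. Filtrate and its 1/10 dilution quantified by HPLC-UV.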

The nature of data set [8]: Cytotoxicity assay (HepG2, CellTiter-Blue cell viability). The class given is cell-based. The settings on record: human; HepG2 cells, 3 days treatment; "*": the detection limit; read-out: CC50. The procedure, abridged:
as §2

[9] abbreviates: Acinetobacter baumannii, ATCC17978, A. baumannii ATCC17978.

≈ marks a conversion by molar mass, not a printed value. Bounds are passed on as bounds.

In the case of `CNc1cc(F)c(F)c2c1[nH]c1ncc(-c3cnc4c(c3)c(=O)c(C(=O)O)cn4C3CCNC3)c(N(C)C)c12` (stereo not drawn) [Example 1.02], the IC50 in data set [1] (A. baumannii ATCC17978) is 0.693 µM; in data set [2], less than 0.098 µM; in data set [3], less than 0.098 µM. The molecule also came in with a 50% cytotoxic concentration (CC50) in data set [4] of more than 100 µM. For the same molecule, in data set [5], the AUC total was found to be 291.0 ng·h/mL. For the same molecule, in data set [5], the clearance amounted to 58.8 mL/min/kg. Further, in data set [6], the “MIC S9” value is reported as 3.335.
For the molecule `CNc1cc(F)c(F)c2c1[nH]c1ncc(-c3cnc4c(c3)c(=O)c(C(=O)O)cn4C)c(N3CCC[C@H]3CN(C)C)c12` [Example 1.14], the IC50 in data set [1] (setting [9]) is 0.154 µM; in data set [2] it was less than 0.098 µM; in data set [3] it was less than 0.098 µM. In data set [7], the solubility (thermodynamic) was found to be 407 µg/mL (≈ 725 µM). In addition, in data set [8], the 50% cytotoxic concentration (CC50) at 3 days was 29.1 µM. Besides, in data set [6], the “MIC S9” value worked out at 7.02.
As to `CNc1cc(F)c(F)c2c1[nH]c1ncc(-c3cnc4c(c3)c(=O)c(C(=O)O)cn4C)c(N3CC[C@H]4CN(C)CC43)c12` (stereo partly drawn) [Example 1.85], the IC50 in data set [1] (setting [9]) was 0.089 µM; in data set [2], less than 0.098 µM; in data set [3], less than 0.098 µM. This molecule also registered a solubility (thermodynamic) in data set [7] of 101 µg/mL (≈ 180 µM). The 50% cytotoxic concentration (CC50) at 3 days in data set [8] is 35.1 µM. Besides, in data set [5], the AUC total was determined as 177.0 ng·h/mL. For the same molecule, the clearance in data set [5] was 94.8 mL/min/kg. Further, the “MIC S9” value in data set [6] was determined as 6.995.
`CNc1cc(F)c(F)c2c1[nH]c1ncc(-c3cnc4c(c3)c(=O)c(C(=O)O)cn4NC)c(N3CC[C@H]4CN(C)CC43)c12` (stereo partly drawn) [Example 1.189]: the IC50 was 0.095 µM in data set [1] (setting [9]), less than 0.098 µM in data set [2] and less than 0.098 µM in data set [3]. In data set [7], this molecule yielded a solubility (thermodynamic) of 255 µg/mL (≈ 444 µM). In addition, the CC50 at 3 days in data set [8] amounted to 41.2 µM. In addition, the “MIC S9” value in data set [6] was found to be 4.304.
With `CNc1cc(F)c(C#N)c2c1[nH]c1ncc(-c3cnc4c(c3)c(=O)c(C(=O)O)cn4C)c(N3CC[C@H]4CN(C)CC43)c12` (stereo partly drawn) [Example 1.274], the IC50 in data set [1] (setting [9]) amounted to 0.117 µM. The same molecule registered a thermodynamic solubility in data set [7] of 118 µg/mL (≈ 208 µM). Moreover, in data set [6], the “MIC S9” value is given as 8.508.
Consider `CNc1cc(F)c(C#N)c2c1[nH]c1ncc(-c3cnc4c(c3)c(=O)c(C(=O)O)cn4NC)c(N3CC[C@H]4CN(C)CC43)c12` (stereo partly drawn) [Example 1.275], for which, in data set [1] (setting [9]), the IC50 was determined as 0.281 µM. Further, in data set [6], the “MIC S9” value is 4.348.
For `CNc1cc(F)c(F)c2c1[nH]c1ncc(-c3cnc4c(c3)c(=O)c(C(=O)O)cn4C)c(N3CC4C(N(C)C)CO[C@@H]4C3)c12` (stereo partly drawn) [Example 1.286] the same measures were 0.143 µM and 3.973.
Take `CNc1cc(F)c(C#N)c2c1[nH]c1ncc(-c3cnc4c(c3)c(=O)c(C(=O)O)cn4C)c(N3CC[C@H]4CN(C)C[C@H]43)c12` [Example 1.298]: in data set [5], the AUC total was determined as 274.0 ng·h/mL and the clearance came out at 62.7 mL/min/kg. In data set [6], the “MIC S9” value was 17.016.
For the molecule `CNc1cc(F)c(F)c2c1[nH]c1ncc(-c3cnc4c(c3)c(=O)c(C(=O)O)cn4NC)c(N3CC[C@H]4CN(C)C[C@H]43)c12` [Example 3.01A, 6-[5,6-difluoro-8-(methylamino)-4-[(3aS,6aS)-5-methyl-2,3,3a,4,6,6a-hexahydropyrrolo[2,3-c]pyrrol-1-yl]-9H-pyrido[2,3-b]indol-3-yl]-1-(methylamino)-4-oxo-1,8-naphthyridine-3-carboxylic acid], the IC50 was 0.034 µM in data set [1] (setting [9]), less than 0.098 µM in data set [2] and less than 0.098 µM in data set [3]. The molecule also showed a thermodynamic solubility in data set [7] of 264 µg/mL (≈ 459 µM). In addition, the CC50 at 3 days in data set [8] was determined as 54.1 µM. In data set [5], this molecule yielded an AUC total of 195.4 ng·h/mL. For the same molecule, the clearance in data set [5] was found to be 81.9 mL/min/kg. In data set [6], the “MIC S9” value came out at 1.796.
In the case of `CNc1cc(F)c(F)c2c1[nH]c1ncc(-c3cnc4c(c3)c(=O)c(C(=O)O)cn4C)c(N3CC[C@H]4CN(C)C[C@H]43)c12` [Example 3.03A], the IC50 is 0.039 µM in data set [1] (setting [9]), less than 0.098 µM in data set [2] and less than 0.098 µM in data set [3]. In data set [7], this molecule displayed a solubility (thermodynamic) of 137 µg/mL (≈ 245 µM). The CC50 at 3 days in data set [8] amounted to 38.4 µM. The molecule further gave an AUC total in data set [5] of 249.6 ng·h/mL. For the same molecule, in data set [5], the clearance was 66.9 mL/min/kg. In addition, the “MIC S9” value in data set [6] turned out to be 1.749.
As for `CNc1cc(F)cc2c1[nH]c1ncc(-c3cnc4c(c3)c(=O)c(C(=O)O)cn4C)c(N3CC[C@H]4CN(C)C[C@H]43)c12` [Example 3.04A], the results for the IC50 in data set [1] (setting [9]), in data set [2] and in data set [3] were 0.035 µM, less than 0.098 µM and less than 0.098 µM, respectively. In data set [7], this molecule gave a solubility (thermodynamic) of 485 µg/mL (≈ 896 µM). Further, the CC50 at 3 days in data set [8] turned out to be 49.5 µM. The molecule further displayed an AUC total in data set [5] of 241.6 ng·h/mL. In addition, in data set [5], the clearance amounted to 68.9 mL/min/kg. In addition, in data set [6], the “MIC S9” value was found to be 6.77.
As to `CNc1cc(F)cc2c1[nH]c1ncc(-c3cnc4c(c3)c(=O)c(C(=O)O)cn4NC)c(N3CC[C@H]4CN(C)C[C@H]43)c12` [Example 3.05A], the figures for the IC50 in data set [1] (setting [9]), in data set [2] and in data set [3] were 0.055 µM, less than 0.098 µM and less than 0.098 µM, respectively. In data set [7], this molecule displayed a solubility (thermodynamic) of 535 µg/mL (≈ 961 µM). For the same molecule, the CC50 at 3 days in data set [8] was found to be 54.5 µM. The same molecule gave an AUC total in data set [5] of 356.4 ng·h/mL. In data set [5], the clearance was 50.5 mL/min/kg. Also, the “MIC S9” value in data set [6] is given as 6.957.

A word on the IC50: it is the concentration that inhibits the measured activity by half. Read a low IC50 as greater potency in that assay. As a reminder, the CC50 is the concentration giving 50% cytotoxicity. Usually solubility (thermodynamic) stands for solubility found after equilibrating the solid with the medium.
